Source: publication PMC12758328 (Virulence, 2025)

How the values were obtained:
SpyGapDH = biological target: T1, SpyGapDH (Streptococcus pyogenes, UniProt P0C0G7); test: NADH formation at […] nm; format: biochemical; conditions: 10 mM NAD+, 10 mM phosphate, 200 mM Tricine pH 8.5
T1 sequence (P0C0G7 2-336): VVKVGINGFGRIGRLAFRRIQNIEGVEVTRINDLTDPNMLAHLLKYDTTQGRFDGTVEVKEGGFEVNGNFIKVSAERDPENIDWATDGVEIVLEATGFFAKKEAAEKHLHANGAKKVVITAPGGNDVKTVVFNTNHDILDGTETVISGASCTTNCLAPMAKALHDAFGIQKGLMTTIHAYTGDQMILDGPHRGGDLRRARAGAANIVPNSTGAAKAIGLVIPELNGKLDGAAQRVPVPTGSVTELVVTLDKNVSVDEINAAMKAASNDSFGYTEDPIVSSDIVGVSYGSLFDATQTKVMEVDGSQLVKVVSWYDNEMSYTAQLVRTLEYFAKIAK

SpyGapN = biological target: T2, SpyGapN (Streptococcus pyogenes, UniProt Q99Z67); test: NADPH formation at […] nm; format: biochemical; conditions: for inhibition at 40000 µM: read-out: % inhibition at 40 mM
T2 sequence (Q99Z67 1-475): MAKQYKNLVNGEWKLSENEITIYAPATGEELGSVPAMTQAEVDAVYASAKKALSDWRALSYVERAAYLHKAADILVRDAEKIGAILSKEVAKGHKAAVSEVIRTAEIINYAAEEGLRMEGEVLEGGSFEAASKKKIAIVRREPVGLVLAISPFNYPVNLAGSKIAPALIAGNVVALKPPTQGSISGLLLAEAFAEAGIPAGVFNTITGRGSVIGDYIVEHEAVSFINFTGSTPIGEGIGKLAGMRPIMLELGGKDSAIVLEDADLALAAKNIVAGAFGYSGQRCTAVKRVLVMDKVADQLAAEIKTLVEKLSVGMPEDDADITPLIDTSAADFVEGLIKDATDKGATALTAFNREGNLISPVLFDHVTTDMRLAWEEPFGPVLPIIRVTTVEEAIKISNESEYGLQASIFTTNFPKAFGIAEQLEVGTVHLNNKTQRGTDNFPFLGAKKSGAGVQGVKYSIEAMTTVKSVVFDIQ

Compound: O=CC(O)COP(=O)(O)O (racemic) [DL-glyceraldehyde 3-phosphate]
- NADH formation at 340 nm (SpyGapDH): To measure the GapDH activity, the assay mixture contained

Compound: Nc1cncnc1 [R65, Pyrimidine-5-amine]
- inhibition at 40000 µM (SpyGapN): ~42%

Compound: Oc1ccnnc1 [R76, 4-Hydroxypyridazine]
- inhibition at 40000 µM (SpyGapN): ~16%

Compound: O=S(=O)(O)C(O)C(O)S(=O)(=O)O (centres unmarked) [compound 26, 1,2-dihydroxyethane-1,2-disulfonate]
- inhibition at 8000 µM (SpyGapN; read-out: % inhibition at 8 mM): ~50%

Compound: (ethoxyoxydophosphanyl)formate [compound 32]
- % inhibition at 8 mM (SpyGapN; 2 mM DL-G3P, 10 mM NADP+, 200 mM Tricine pH 8.5): ~ 25%
